In patent US12213860B2, “Method for separating mammalian sperm, artificial insemination method, and in vitro fertilization method” (Hiroshima University, priority 2017, dated 2025):

How the values were obtained:
Assay type in all cases: cell-based
bovine sperm [1] = experiment: Percentages of X-sperm and Y-sperm in floating bovine sperm by real-time PCR
Method: A frozen bovine semen provided by the Oita Prefectural Agriculture, Forestry and Fisheries Research Center was used. The frozen sperm were melted, and washed with an albumin-free HTF medium. The bovine sperm were incubated in a medium prepared by adding albumin and a TLR7 ligand to HTF at 37° C., 5% CO2 for 1 hour. The TLR7 ligand used was R-848 or imiquimod R-837 (hereinafter referred to as R-837). The content of R-848 was 0 μM, 0.003 μM, 0.03 μM, 0.3 μM, or 3 μM. The content of R-837 was 0.003 μM, 0.03 μM, 0.3 μM, 3 μM, 30 μM, or 300 μM. Then, after collecting the floating sperm in the upper layer and extracting DNA, the percentages of X-sperm and Y-sperm were determined by real-time PCR.

bovine sperm [2] = experiment: Bovine in vitro fertilization with upper layer sperm; fertilization, blastocyst rate and sexing by real-time PCR; conditions: bovine IVF, upper layer sperm from 0.03 μM R-848 treatment group
Method: Bovine in vitro fertilization was performed using the sperm in the upper layer rich in Y-sperm from the 0.03 μM R-848 treatment group. […] Next, sexing of the blastocyst embryos was performed by real-time PCR.

pig sperm = experiment: Percentages of X-sperm and Y-sperm in floating pig sperm by real-time PCR; conditions: R-848 0.3 μM, 2 hours
Method: Pig sperm were incubated in a medium prepared by adding cysteine, glycine, and a TLR7 ligand to the Modena solution at 37° C., 5% CO2, 5% O2 for 2 hours. The TLR7 ligand used was R-848. The content of R-848 was 0 μM or 0.3 μM. After collecting the floating sperm in the upper layer and extracting DNA, the percentages of X-sperm and Y-sperm were determined by real-time PCR.

mouse sperm [3] = experiment: Separation of mouse sperm by hypergravity load (centrifugation) after TLR7 ligand incubation; X-/Y-sperm percentages in upper and lower layer; conditions: R-848 0.3 μM; for percentage of X-sperm in the lower layer of the medium: 30% of the lower layer; for percentage of Y-sperm in the upper layer of the medium: 30% of the upper layer
Method: Mouse sperm were incubated in a medium (500 μL) prepared by adding albumin and a TLR7 ligand to an embryo culture medium (HTF) at 37° C., 5% CO2 for 1 hour. The TLR7 ligand used was Resiquimod R-848 (hereinafter referred to as R-848). The content of R-848 was 0.3 μM. After 30 minutes, the media were centrifuged using a centrifuge (product name: Tabletop Micro Refrigerated Centrifuge Model 3520, produced by KUBOTA Corporation Co., Ltd.) at 37° C. for 30 minutes. The centrifugation was at a centrifugal force of 50×g, 100×g, or 500×g. For comparison, a system without centrifugation (0×g) was also prepared. After centrifugation, 150 μL of the upper layer (30% of the upper layer) of each of the media was collected, and the percentages of X-sperm and Y-sperm in each of the media were determined in the same manner as described above. In addition, 150 μL of the lower layer (30% of the lower layer) of each of the media was collected, and the percentages of X-sperm and Y-sperm in each of the media were determined in the same manner as described above.

mouse sperm [4] = experiment: Percentages of X-sperm and Y-sperm in floating mouse sperm by real-time PCR; conditions: 0.3 μM treatment group
Method: Mouse sperm were incubated in a medium prepared by adding albumin and a TLR7 ligand to an embryo culture medium (HTF) at 37° C., 5% CO2 for 1 hour. The TLR7 ligand used was Resiquimod R-848 (hereinafter referred to as R-848). The content of R-848 was 0 μM, 0.003 μM, 0.03 μM, 0.3 μM, 1.5 μM, or 3 μM. The sperm floating in the upper layer were collected, and DNA was extracted. Then, the percentages of X chromosome-bearing sperm (hereinafter referred to as X-sperm) and Y chromosome-bearing sperm (hereinafter referred to as Y-sperm) were determined by real-time PCR (polymerase chain reaction).

mouse sperm [5] = experiment: Mouse in vitro fertilization with upper and lower layer sperm separated at 50×g; 2-cell, blastocyst embryo, XX/XY chromosomes; conditions: for 2-cell (%), (number of 2-cell/number of eggs)×100 / Blastocyst embryo (%), (number of blastocyst embryos/number of 2-cell)×100 / Blastocyst embryo (number) / XX chromosomes (%) of blastocyst embryos / XX chromosomes (number) of blastocyst embryos / XY chromosomes (%) of blastocyst embryos / XY chromosomes (number) of blastocyst embryos / 2-cell (number), observed cleavages in 24 hours: R-848 0.3 μM, 50×g
Method: Then, the percentages of blastocyst embryos bearing XX chromosomes or XY chromosomes were determined. In addition, a sperm population obtained by incubating in the same medium as described above at 37° C. for 60 minutes without addition of the TLR7 ligand and without centrifugation (non-treatment group) was subjected to in vitro fertilization in the same manner as described above to form a blastocyst embryo. Then, the percentages of blastocyst embryos bearing XX chromosomes or XY chromosomes were determined. In the column “2-cell” in Table 3, “number” represents number of observed cleavages in 24 hours, while “%” represents “(number of 2-cell/number of eggs)×100.” In the column “blastocyst embryo,” “number” represents number of formed blastocyst embryos, while “%” represents “(number of blastocyst embryos/number of 2-cell)×100.”

mouse sperm [6] = experiment: Mouse in vitro fertilization with washed floating sperm; XX/XY chromosomes of embryos; conditions: floating sperm from 0.3 μM treatment group
Method: The floating sperm in the non-treatment group and 0.3 μM treatment group were washed, and then subjected to in vitro fertilization. The percentage of in vitro fertilization embryo bearing XX chromosomes or XY chromosomes was determined.

[7] = centrifugation at 100×g or more

CC(C)Cn1cnc2c(N)nc3ccccc3c21 [R-837, imiquimod] was tested, and the “percentage of Y-sperm in floating sperm” value (bovine sperm [1]; R-837 0.03 to 30 μM treatment groups) was no less than 70%.
In the case of CCOCc1nc2c(N)nc3ccccc3c2n1CC(C)(C)O [R-848, resiquimod], the “blastocyst embryo transfer rate” value (bovine sperm [2]) is reported as 64.3%, the fertilization rate (bovine sperm [2]) is reported as 71.7% and the “male embryos (sexing of blastocyst embryos by real-time PCR)” value (bovine sperm [2]) is reported as 87.8%. The “percentage of Y-sperm in floating sperm” value (pig sperm) was no less than 90%, the “percentage of Y-sperm in floating sperm” value (bovine sperm [1]; R-848 0.03 to 0.3 μM treatment groups) was no less than 90% and the “percentage of X-sperm in the lower layer of the medium” value (mouse sperm [3]; 0×g (without centrifugation)) was “exceeding 60%”. The “percentage of Y-sperm in the upper layer of the medium” value (mouse sperm [3]; 0×g (without centrifugation)) was “exceeding 80%”, the “percentage of X-sperm in the lower layer of the medium” value (mouse sperm [3]; [7]) was “below 50%” and the “percentage of Y-sperm in the upper layer of the medium” value (mouse sperm [3]; [7]) was “about 60%”. For the same compound, the “percentage of Y-sperm in floating sperm” value (mouse sperm [4]) was no less than 80%, the “effect on the fertilization function of the sperm” value (mouse sperm [5]; centrifugation on sperm incubated in medium supplemented with TLR7 ligand (R-848 0.3 μM, 50×g) vs non-treatment group) was “no effect” and the “2-cell (%), (number of 2-cell/number of eggs)×100” value (mouse sperm [5]; lower layer group) was 70%. For the same compound, the “Blastocyst embryo (%), (number of blastocyst embryos/number of 2-cell)×100” value (mouse sperm [5]; lower layer group) was 70%, the “Blastocyst embryo (number)” value (mouse sperm [5]; lower layer group) was 48 and the “XX chromosomes (%) of blastocyst embryos” value (mouse sperm [5]; lower layer group) was 81%. The “XX chromosomes (number) of blastocyst embryos” value (mouse sperm [5]; lower layer group) was 39, the “XY chromosomes (%) of blastocyst embryos” value (mouse sperm [5]; lower layer group) was 19% and the “XY chromosomes (number) of blastocyst embryos” value (mouse sperm [5]; lower layer group) was 9. For the same compound, the “2-cell (number), observed cleavages in 24 hours” value (mouse sperm [5]; lower layer group, 99 eggs) was 69, the “2-cell (%), (number of 2-cell/number of eggs)×100” value (mouse sperm [5]; upper layer group) was 79% and the “Blastocyst embryo (%), (number of blastocyst embryos/number of 2-cell)×100” value (mouse sperm [5]; upper layer group) was 73%. For the same compound, the “Blastocyst embryo (number)” value (mouse sperm [5]; upper layer group) was 59, the “XX chromosomes (%) of blastocyst embryos” value (mouse sperm [5]; upper layer group) was 10% and the “XX chromosomes (number) of blastocyst embryos” value (mouse sperm [5]; upper layer group) was 6. For the same compound, the “XY chromosomes (%) of blastocyst embryos” value (mouse sperm [5]; upper layer group) was 90%, the “XY chromosomes (number) of blastocyst embryos” value (mouse sperm [5]; upper layer group) was 53 and the “2-cell (number), observed cleavages in 24 hours” value (mouse sperm [5]; upper layer group, 103 eggs) was 81. The “XX chromosomes (%) of in vitro fertilization embryos” value (mouse sperm [6]) was 13%, the “XX chromosomes (Number) of in vitro fertilization embryos” value (mouse sperm [6]; 98 embryos tested) was 13 and the “XY chromosomes (Number) of in vitro fertilization embryos” value (mouse sperm [6]; 98 embryos tested) was 85.
